ChEMBL document CHEMBL1201862, “PubChem BioAssay data set” (2004)
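Cells were grown in 96-well plates and exposed to each compound for 48 hours at five concentrations; endpoints were interpolated linearly between bracketing concentrations, or set to the highest concentration if not reached. GI50 is the concentration that inhibits growth by half.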 The source made the active and inactive calls. Cut-off read from the data, not from the text of the source: active = GI50 up to about 1.1 µM and inactive = higher.

How the values were obtained:
Experiment in all cases: NCI-60 cell line screen, 48 h
[1] = system: M14
[2] = system: K562
[3] = system: SK-MEL-2
[4] = system: SK-OV-3
[5] = system: HT-29
[6] = system: SF-295
[7] = system: SK-MEL-28
[8] = system: HCT-116
[9] = system: OVCAR-5
[10] = system: DLD-1
[11] = system: A498
[12] = system: SK-MEL-5
[13] = system: TK-10
[14] = system: NCI-H226
[15] = system: OVCAR-4
[16] = system: NCI-H23
[17] = system: SNB-19
[18] = system: LOX IMVI

Question: `CC(=O)OCC1=C(COC(C)=O)C(=O)c2c(O)ccc(O)c2C1=O` was tested. Which GI50 [1] did it give?
Answer: 5.3 µM (inactive)

Question: What about the GI50 [2] of the same compound?
Answer: 17.9 µM (inactive)

Question: And the GI50 [3]?
Answer: 3.11 µM (inactive)

Question: And the GI50 [4]?
Answer: 18.8 µM (inactive)

Question: And the GI50 [5]?
Answer: 11.7 µM (inactive)

Question: And the GI50 [6]?
Answer: 13.4 µM (inactive)

Question: What about the GI50 [7] of the same compound?
Answer: 4.9 µM (inactive)

Question: What about the GI50 [8] of the same compound?
Answer: 12.1 µM (inactive)

Question: And the GI50 [9]?
Answer: 16.4 µM (inactive)

Question: What about the GI50 [10] of the same compound?
Answer: 1.43 µM (inactive)

Question: What about the GI50 [11] of the same compound?
Answer: 18.4 µM (inactive)

Question: What about the GI50 [12] of the same compound?
Answer: 14.8 µM (inactive)

Question: And the GI50 [13]?
Answer: 16.3 µM (inactive)

Question: What about the GI50 [14] of the same compound?
Answer: 15.8 µM (inactive)

Question: And the GI50 [15]?
Answer: 10.8 µM (inactive)

Question: And the GI50 [16]?
Answer: 12.1 µM (inactive)

Question: Which GI50 [2] does the source give for `Cc1nc2ccccc2c(=O)n1/N=C(\N=N\c1cc(Cl)ccc1Cl)c1ccc(N(C)C)cc1` here?
Answer: 57.1 µM (inactive)

Question: And the GI50 [4]?
Answer: 28.2 µM (inactive)

Question: And the GI50 [5]?
Answer: 42 µM (inactive)

Question: And the GI50 [7]?
Answer: > 100 µM (inactive)

Question: What about the GI50 [8] of the same compound?
Answer: 32.3 µM (inactive)

Question: And the GI50 [10]?
Answer: 62.7 µM (inactive)

Question: What about the GI50 [11] of the same compound?
Answer: 60.4 µM (inactive)

Question: What about the GI50 [12] of the same compound?
Answer: 27.2 µM (inactive)

Question: What about the GI50 [13] of the same compound?
Answer: 88.3 µM (inactive)

Question: What about the GI50 [17] of the same compound?
Answer: 33.3 µM (inactive)

Question: What about the GI50 [16] of the same compound?
Answer: 34.8 µM (inactive)

Question: What about the GI50 [18] of the same compound?
Answer: 63.4 µM (inactive)

Question: Which results are given for `CN(C)C(=S)/N=c1\ss/c(=N\S(=O)(=O)c2ccccc2)n1-c1ccccc1`?
Answer: GI50 [1]: 20.6 µM (inactive); GI50 [2]: 0.953 µM (active); GI50 [3]: 11.5 µM (inactive); GI50 [4]: 89.7 µM (inactive); GI50 [5]: 0.0522 µM (active); GI50 [6]: 20.3 µM (inactive); GI50 [7]: 63.7 µM (inactive); GI50 [9]: > 100 µM (inactive); GI50 [10]: 13.5 µM (inactive); GI50 [11]: 50.9 µM (inactive); GI50 [12]: 0.0653 µM (active); GI50 [13]: 40.1 µM (inactive); GI50 [14]: 0.458 µM (active); GI50 [15]: 0.185 µM (active); GI50 [16]: 16.1 µM (inactive); GI50 [18]: 4.06 µM (inactive)

Question: How did the GI50 [1] turn out when `O=C1C(c2ccc(C3=[N+]([O-])c4cc([N+](=O)[O-])ccc4C3=O)cc2)=[N+]([O-])c2cc([N+](=O)[O-])ccc21` was run?
Answer: > 10 µM (inactive)

Question: And the GI50 [2]?
Answer: > 10 µM (inactive)

Question: What about the GI50 [3] of the same compound?
Answer: > 10 µM (inactive)

Question: What about the GI50 [4] of the same compound?
Answer: > 10 µM (inactive)

Question: What about the GI50 [5] of the same compound?
Answer: > 10 µM (inactive)

Question: What about the GI50 [6] of the same compound?
Answer: > 10 µM (inactive)

Question: What about the GI50 [7] of the same compound?
Answer: > 10 µM (inactive)

Question: What about the GI50 [8] of the same compound?
Answer: > 10 µM (inactive)

Question: What about the GI50 [9] of the same compound?
Answer: > 10 µM (inactive)

Question: What about the GI50 [10] of the same compound?
Answer: > 10 µM (inactive)

Question: What about the GI50 [11] of the same compound?
Answer: > 10 µM (inactive)

Question: And the GI50 [12]?
Answer: > 10 µM (inactive)

Question: And the GI50 [13]?
Answer: > 10 µM (inactive)

Question: What about the GI50 [14] of the same compound?
Answer: > 10 µM (inactive)

Question: And the GI50 [15]?
Answer: > 10 µM (inactive)

Question: And the GI50 [17]?
Answer: > 10 µM (inactive)

Question: What about the GI50 [16] of the same compound?
Answer: > 10 µM (inactive)

Question: And the GI50 [18]?
Answer: > 10 µM (inactive)

Question: How did the GI50 [1] turn out when `COc1ccc(C2C(N)=NCC2c2ccccn2)cc1` (stereo unspecified) was run?
Answer: > 100 µM (inactive)

Question: And the GI50 [2]?
Answer: > 100 µM (inactive)

Question: What about the GI50 [3] of the same compound?
Answer: > 100 µM (inactive)

Question: And the GI50 [4]?
Answer: > 100 µM (inactive)

Question: And the GI50 [5]?
Answer: > 100 µM (inactive)

Question: And the GI50 [6]?
Answer: > 100 µM (inactive)

Question: And the GI50 [7]?
Answer: > 100 µM (inactive)

Question: And the GI50 [8]?
Answer: > 100 µM (inactive)

Question: What about the GI50 [9] of the same compound?
Answer: > 100 µM (inactive)

Question: What about the GI50 [10] of the same compound?
Answer: > 100 µM (inactive)

Question: What about the GI50 [11] of the same compound?
Answer: > 100 µM (inactive)

Question: What about the GI50 [12] of the same compound?
Answer: > 100 µM (inactive)

Question: And the GI50 [13]?
Answer: > 100 µM (inactive)

Question: And the GI50 [14]?
Answer: > 100 µM (inactive)

Question: And the GI50 [15]?
Answer: > 100 µM (inactive)

Question: And the GI50 [17]?
Answer: > 100 µM (inactive)

Question: What about the GI50 [16] of the same compound?
Answer: > 100 µM (inactive)

Question: And the GI50 [18]?
Answer: > 100 µM (inactive)

Question: Which results are given for `O=C(O)c1ccc(C2C(=O)N[C@@H]3CCC[C@H]23)cc1` (stereo partly specified)?
Answer: GI50 [1]: > 100 µM (inactive); GI50 [2]: > 100 µM (inactive); GI50 [3]: > 100 µM (inactive); GI50 [4]: > 100 µM (inactive); GI50 [5]: > 100 µM (inactive); GI50 [6]: > 100 µM (inactive); GI50 [7]: > 100 µM (inactive); GI50 [8]: > 100 µM (inactive); GI50 [9]: > 100 µM (inactive); GI50 [10]: > 100 µM (inactive); GI50 [11]: > 100 µM (inactive); GI50 [12]: > 100 µM (inactive); GI50 [13]: > 100 µM (inactive); GI50 [14]: > 100 µM (inactive); GI50 [15]: > 100 µM (inactive); GI50 [17]: > 100 µM (inactive); GI50 [16]: > 100 µM (inactive); GI50 [18]: > 100 µM (inactive)

Question: `CC12CC3(C)CC(C)(C1)CC(N=[N+]=[N-])(C2)C3` was tested. Which GI50 [1] did it give?
Answer: > 100 µM (inactive)

Question: And the GI50 [2]?
Answer: > 100 µM (inactive)

Question: And the GI50 [3]?
Answer: > 100 µM (inactive)

Question: What about the GI50 [4] of the same compound?
Answer: > 100 µM (inactive)

Question: And the GI50 [5]?
Answer: > 100 µM (inactive)

Question: What about the GI50 [6] of the same compound?
Answer: > 100 µM (inactive)

Question: And the GI50 [7]?
Answer: > 100 µM (inactive)

Question: And the GI50 [8]?
Answer: > 100 µM (inactive)

Question: And the GI50 [9]?
Answer: > 100 µM (inactive)

Question: What about the GI50 [10] of the same compound?
Answer: > 100 µM (inactive)

Question: What about the GI50 [11] of the same compound?
Answer: > 100 µM (inactive)

Question: What about the GI50 [12] of the same compound?
Answer: > 100 µM (inactive)

Question: And the GI50 [13]?
Answer: > 100 µM (inactive)

Question: And the GI50 [14]?
Answer: > 100 µM (inactive)

Question: And the GI50 [15]?
Answer: > 100 µM (inactive)

Question: What about the GI50 [17] of the same compound?
Answer: > 100 µM (inactive)

Question: What about the GI50 [16] of the same compound?
Answer: > 100 µM (inactive)

Question: And the GI50 [18]?
Answer: > 100 µM (inactive)

Question: Which results are given for `CC(=O)OCC1OC(n2cc(F)c(=O)[nH]c2=O)C(N)C(OC(C)=O)C1OC(C)=O` (stereo unspecified)?
Answer: GI50 [2]: > 100 µM (inactive); GI50 [3]: > 100 µM (inactive); GI50 [4]: > 100 µM (inactive); GI50 [5]: > 100 µM (inactive); GI50 [6]: > 100 µM (inactive); GI50 [8]: > 100 µM (inactive); GI50 [9]: > 100 µM (inactive); GI50 [10]: > 100 µM (inactive); GI50 [11]: > 100 µM (inactive); GI50 [12]: > 100 µM (inactive); GI50 [14]: > 100 µM (inactive); GI50 [15]: > 100 µM (inactive); GI50 [17]: > 100 µM (inactive); GI50 [16]: > 100 µM (inactive); GI50 [18]: > 100 µM (inactive)
